Source: patent publication US4539401A, “Pyridobenzoxazine derivatives useful as antibacterial agents” (Daiichi Seiyaku Co., Ltd., priority 1982, dated 1985)
Values after ≈ are worked out from the molar mass of the structure shown. Counter-ions that a name gives are not always drawn.

What was measured:
[1] = tested on: B. subtilis, ATCC-6633; assay: MIC, standard method of the Japan Society of Chemotherapy (Mueller-Hinton Broth medium); assay type: cell-based; settings: Bacillus subtilis, ATCC6633, 10^6 /ml of bacteria, 37° C., 18 hours
Protocol: (§1) *Determined by the standard method of the Japan Society of Chemoterapy:
(§2) (MuellerHinton Broth medium), 10^6 /ml of bacteria were seeded and
(§3) incubated at 37° C. for 18 hours.

[2] = tested on: E. coli, NIHJ; assay: as above; assay type: cell-based; settings: Escherichia coli, 10^6 /ml of bacteria, 37° C., 18 hours
Protocol: as §1, §2, §3

[3] = tested on: Ent. cloacae, 03400; assay: as above; assay type: cell-based; settings: Enterobacter cloacae, 10^6 /ml of bacteria, 37° C., 18 hours
Protocol: as §1, §2, §3

[4] = tested on: K. pneumoniae, type 1; assay: as above; assay type: cell-based; settings: Klebsiella pneumoniae, TYPE1, 10^6 /ml of bacteria, 37° C., 18 hours
Protocol: as §1, §2, §3

[5] = tested on: Pr. mirabilis, IFO-3849; assay: as above; assay type: cell-based; settings: Proteus mirabilis, IFO3849, 10^6 /ml of bacteria, 37° C., 18 hours
Protocol: as §1, §2, §3

[6] = tested on: Pr. vulgaris, 08602; assay: as above; assay type: cell-based; settings: Proteus vulgaris, 10^6 /ml of bacteria, 37° C., 18 hours
Protocol: as §1, §2, §3

[7] = tested on: Ps. aeruginosa, 32104; assay: as above; assay type: cell-based; settings: Pseudomonas aeruginosa, 10^6 /ml of bacteria, 37° C., 18 hours
Protocol: as §1, §2, §3

[8] = tested on: Ps. aeruginosa, 32121; assay: as above; assay type: cell-based; settings: Pseudomonas aeruginosa, 10^6 /ml of bacteria, 37° C., 18 hours
Protocol: as §1, §2, §3

[9] = tested on: Ps. aeruginosa, 32122; assay: as above; assay type: cell-based; settings: Pseudomonas aeruginosa, 10^6 /ml of bacteria, 37° C., 18 hours
Protocol: as §1, §2, §3

[10] = tested on: Ps. aeruginosa, 32233; assay: as above; assay type: cell-based; settings: Pseudomonas aeruginosa, 10^6 /ml of bacteria, 37° C., 18 hours
Protocol: as §1, §2, §3

[11] = tested on: Ps. aeruginosa, 32234; assay: as above; assay type: cell-based; settings: Pseudomonas aeruginosa, 10^6 /ml of bacteria, 37° C., 18 hours
Protocol: as §1, §2, §3

[12] = tested on: S. aureus, 209 P; assay: as above; assay type: cell-based; settings: Staphylococcus aureus, 10^6 /ml of bacteria, 37° C., 18 hours
Protocol: as §1, §2, §3

[13] = tested on: S. epidermidis, 56500; assay: as above; assay type: cell-based; settings: Staphylococcus epidermidis, 10^6 /ml of bacteria, 37° C., 18 hours
Protocol: as §1, §2, §3

[14] = tested on: Ser. marcescens, 10104; assay: as above; assay type: cell-based; settings: Serratia marcescens, 10^6 /ml of bacteria, 37° C., 18 hours
Protocol: as §1, §2, §3

[15] = tested on: Sh. flexneri, 2a, 5503; assay: as above; assay type: cell-based; settings: Shigella flexneri, 10^6 /ml of bacteria, 37° C., 18 hours
Protocol: as §1, §2, §3

[16] = tested on: Str. faecalis, ATCC-19433; assay: as above; assay type: cell-based; settings: Enterococcus faecalis, ATCC19433, 10^6 /ml of bacteria, 37° C., 18 hours
Protocol: as §1, §2, §3

[17] = tested on: Str. pyogenes, G-36; assay: as above; assay type: cell-based; settings: Streptococcus pyogenes, G36, 10^6 /ml of bacteria, 37° C., 18 hours
Protocol: as §1, §2, §3

[18] = tested on: Gram-positive bacteria; assay: antibacterial activity, statement in words; assay type: cell-based; settings: from Table 1
Protocol: as §1, §2, §3

[19] = acute toxicity (LD 50) in mice (i.v.); settings: mouse, in vivo, iv
[20] = tested on: Pseudomonas aeruginosa; assay: antibacterial activity, statement in words; assay type: cell-based; settings: from Table 1
Protocol: as §1, §2, §3

Which MIC [1] does the source give for C=C1COc2c(N3CCC(O)C3)c(F)cc3c(=O)c(C(=O)O)cn1c23 (centres unmarked) [Ia, 9-fluoro-10-(3-hydroxy-1-pyrrolidnyl)-3-methylene-7-oxo-2,3-dihydro-7H-pyrido(1,2,3-de)-1,4-benzoxazine-6-carboxylic acid] here?
The MIC was ≤ 0.0063 µg/mL.

And the MIC [2]?
The MIC was 0.0125 µg/mL (≈ 0.0361 µM).

And the MIC [3]?
The MIC was 0.05 µg/mL (≈ 0.144 µM).

And the MIC [4]?
The MIC was 0.19 µg/mL (≈ 0.549 µM).

What about the MIC [5] of the same molecule?
The MIC was 0.05 µg/mL (≈ 0.144 µM).

And the MIC [6]?
The MIC was 0.025 µg/mL (≈ 0.0722 µM).

And the MIC [7]?
Its MIC is 0.78 µg/mL (≈ 2.25 µM).

What about the MIC [8] of the same molecule?
The MIC was 0.19 µg/mL (≈ 0.549 µM).

And the MIC [9]?
The MIC was 0.78 µg/mL (≈ 2.25 µM).

What about the MIC [10] of the same molecule?
Its MIC is 0.78 µg/mL (≈ 2.25 µM).

What about the MIC [11] of the same molecule?
Its MIC is 0.78 µg/mL (≈ 2.25 µM).

And the MIC [12]?
The MIC was 0.05 µg/mL (≈ 0.144 µM).

What about the MIC [13] of the same molecule?
The MIC was 0.19 µg/mL (≈ 0.549 µM).

And the MIC [14]?
The MIC was 0.1 µg/mL (≈ 0.289 µM).

And the MIC [15]?
The MIC was 0.025 µg/mL (≈ 0.0722 µM).

What about the MIC [16] of the same molecule?
Its MIC is 0.39 µg/mL (≈ 1.13 µM).

What about the MIC [17] of the same molecule?
The MIC was 0.78 µg/mL (≈ 2.25 µM).

And the “antibacterial activity against Gram-positive bacteria” value [18]?
The value was “very strong antibacterial activity”.

Which LD50 [19] does the source give for C=C1COc2c(N3CCC(O)C3)c(F)cc3c(=O)c(C(=O)O)cn1c23 (centres unmarked) [Ia, sodium salt] here?
The LD50 was 333 mg/kg.

For C=C1COc2c(N3CCC(N)C3)c(F)cc3c(=O)c(C(=O)O)cn1c23 (centres unmarked) [Ib, 10-(3-amino-1-pyrrolidinyl)-9-fluoro-3-methylene-7-oxo-2,3-dihydro-7H-pyrido(1,2,3-de)-1,4-benzoxazine-6-carboxylic acid], which MIC [1] is on record?
Its MIC is 0.05 µg/mL (≈ 0.145 µM).

What about the MIC [2] of the same molecule?
Its MIC is 0.025 µg/mL (≈ 0.0724 µM).

And the MIC [3]?
The MIC was 0.025 µg/mL (≈ 0.0724 µM).

And the MIC [4]?
The MIC was 0.05 µg/mL (≈ 0.145 µM).

What about the MIC [5] of the same molecule?
Its MIC is 0.025 µg/mL (≈ 0.0724 µM).

And the MIC [6]?
Its MIC is 0.025 µg/mL (≈ 0.0724 µM).

And the MIC [7]?
The MIC was 0.1 µg/mL (≈ 0.29 µM).

What about the MIC [8] of the same molecule?
Its MIC is 0.05 µg/mL (≈ 0.145 µM).

What about the MIC [9] of the same molecule?
Its MIC is 0.1 µg/mL (≈ 0.29 µM).

What about the MIC [10] of the same molecule?
The MIC was 0.19 µg/mL (≈ 0.55 µM).

And the MIC [11]?
The MIC was 0.1 µg/mL (≈ 0.29 µM).

What about the MIC [12] of the same molecule?
Its MIC is 0.1 µg/mL (≈ 0.29 µM).

What about the MIC [13] of the same molecule?
The MIC was 0.39 µg/mL (≈ 1.13 µM).

What about the MIC [14] of the same molecule?
The MIC was 0.05 µg/mL (≈ 0.145 µM).

And the MIC [15]?
The MIC was 0.0125 µg/mL (≈ 0.0362 µM).

What about the MIC [16] of the same molecule?
Its MIC is 0.78 µg/mL (≈ 2.26 µM).

What about the MIC [17] of the same molecule?
Its MIC is 0.78 µg/mL (≈ 2.26 µM).

And the “antibacterial activity against Pseudomonas aeruginosa” value [20]?
Its value is “very strong antibacterial activity”.

For C=C1COc2c(N3CCC(N)C3)c(F)cc3c(=O)c(C(=O)O)cn1c23 (centres unmarked) [Ib, methanesulfonic acid addition salt], which LD50 [19] is on record?
Its LD50 is > 320 mg/kg.
